Assay results as given in article PMC12298351, “Novel 3,19-(N-Phenyl-3-(4-fluorophenyl)-pyrazole) Acetal of Andrographolide Promotes Cell Cycle Arrest and Apoptosis in MDA-MB-231 Breast Cancer Cells” (Pharmaceuticals, 2025).

Columns and labels:
[1] = tested on: SNB-19; format: cell-based; conditions: SNB-19, CNS
[2] = tested on: BT-549; format: cell-based; conditions: BT-549, Breast
[3] = tested on: K-562; conditions: K-562, Leukemia
[4] = tested on: A549/ATCC
[5] = tested on: HOP-92
[6] = tested on: NCI-H226
[7] = tested on: NCI-H460
[8] = tested on: COLO 205; conditions: COLO 205, Colon
[9] = tested on: HT29; conditions: HT29, Colon
[10] = tested on: KM12; conditions: KM12, Colon
[11] = tested on: SW-620; conditions: SW-620, Colon
[12] = tested on: SF-268; conditions: SF-268, CNS
[13] = tested on: SNB-75; conditions: SNB-75, CNS
[14] = tested on: LOX IMVI
[15] = tested on: MALME-3M
[16] = tested on: SK-MEL-28; conditions: SK-MEL-28, Melanoma
[17] = tested on: SK-MEL-5; conditions: SK-MEL-5, Melanoma
[18] = tested on: IGROV1; conditions: IGROV1, Ovarian
[19] = tested on: OVCAR-5; conditions: OVCAR-5, Ovarian
[20] = tested on: NCI/ADR-RES; conditions: Ovarian
[21] = tested on: SK-OV-3; conditions: SK-OV-3, Ovarian
[22] = tested on: 786-0; conditions: 786-0, Renal
[23] = tested on: ACHN
[24] = tested on: CAKI-1; conditions: CAKI-1, Renal
[25] = tested on: SN12C
[26] = tested on: UO-31; conditions: UO-31, Renal
[27] = tested on: DU-145; conditions: DU-145, Prostate
[28] = tested on: MCF7; conditions: MCF7, Breast
[29] = tested on: MDA-MB-231
[30] = tested on: HS 578T
[31] = tested on: MDA-MB-468; conditions: MDA-MB-468, Breast
[32] = read-out: 50% lethal concentration (LC50)
[33] = read-out: 50% lethal concentration (LC50), Melanoma
[34] = read-out: 50% lethal concentration (LC50), Renal

For `C=C1CCC2C3(C)COC(c4cn(-c5ccccc5)nc4-c4cccc([N+](=O)[O-])c4)OC3CCC2(C)C1CC=C1C(=O)OCC1O` (stereo not drawn) [1b], the GI50 [1] was 3.64 µM, the Total growth inhibition (TGI) [1] was 15 µM and the CC50 [1, 32] was 60 µM. It also gave a GI50 [2] of 1.94 µM, a Total growth inhibition (TGI) [2] of 3.8 µM and a GI50 [3] of 2.16 µM. For the same compound, the Total growth inhibition (TGI) [3] was > 100 µM, the CC50 [3, 32] was > 100 µM and the Total growth inhibition (TGI) ([4]; Non-Small Cell Lung) was > 100 µM. The GI50 ([4]; Non-Small-Cell Lung) was 3.62 µM, the CC50 ([4]; read-out: 50% lethal concentration (LC50), Non-Small Cell Lung) was > 100 µM and the Total growth inhibition (TGI) ([5]; HOP-92, Non-Small Cell Lung) was 3.64 µM. It also gave a GI50 ([5]; HOP-92, Non-Small-Cell Lung) of 1.86 µM, a CC50 ([5]; read-out: 50% lethal concentration (LC50), HOP-92, Non-Small Cell Lung) of 7.11 µM and a Total growth inhibition (TGI) ([6]; NCI-H226, Non-Small Cell Lung) of 6.59 µM. The GI50 ([6]; NCI-H226, Non-Small-Cell Lung) was 2.38 µM, the CC50 ([6]; read-out: 50% lethal concentration (LC50), NCI-H226, Non-Small Cell Lung) was > 100 µM and the Total growth inhibition (TGI) ([7]; NCI-H460, Non-Small Cell Lung) was 4.8 µM. For the same compound, the GI50 ([7]; NCI-H460, Non-Small-Cell Lung) was 2.27 µM, the CC50 ([7]; read-out: 50% lethal concentration (LC50), NCI-H460, Non-Small Cell Lung) was 11.3 µM and the GI50 [8] was 2.41 µM. The Total growth inhibition (TGI) [8] was 5.06 µM, the CC50 [8, 32] was 12.7 µM and the GI50 [9] was 1.82 µM. The Total growth inhibition (TGI) [9] was 4.26 µM, the CC50 [9, 32] was 9.95 µM and the GI50 [10] was 1.99 µM. For the same compound, the Total growth inhibition (TGI) [10] was 4.38 µM, the GI50 [11] was 2.21 µM and the Total growth inhibition (TGI) [11] was 5.13 µM. For the same compound, the CC50 [11, 32] was > 100 µM, the GI50 [12] was 7.65 µM and the Total growth inhibition (TGI) [12] was > 100 µM. The CC50 [12, 32] was > 100 µM, the GI50 [13] was 7.34 µM and the Total growth inhibition (TGI) [13] was 50 µM. The CC50 [13, 32] was > 100 µM, the GI50 ([14]; Melanoma) was 1.72 µM and the Total growth inhibition (TGI) ([14]; Melanoma) was 3.34 µM. It also gave a CC50 [14, 33] of 6.48 µM, a GI50 ([15]; Melanoma) of 1.78 µM and a Total growth inhibition (TGI) ([15]; Melanoma) of 3.55 µM. The CC50 [15, 33] was 7.05 µM, the GI50 [16] was 2.04 µM and the Total growth inhibition (TGI) [16] was 4.06 µM. It also gave a CC50 [16, 32] of 8.11 µM, a GI50 [17] of 1.63 µM and a Total growth inhibition (TGI) [17] of 3 µM. The CC50 [17, 32] was 5.53 µM, the GI50 [18] was 2.08 µM and the Total growth inhibition (TGI) [18] was 4.27 µM. It also gave a CC50 [18, 32] of 8.76 µM, a GI50 [19] of 2.06 µM and a Total growth inhibition (TGI) [19] of 5.05 µM. The GI50 [20] was 2.98 µM, the GI50 [21] was 2.08 µM and the Total growth inhibition (TGI) [21] was > 100 µM. For the same compound, the CC50 [21, 32] was > 100 µM, the GI50 [22] was 3.04 µM and the Total growth inhibition (TGI) [22] was 10.3 µM. For the same compound, the CC50 [22, 32] was > 100 µM, the GI50 ([23]; Renal) was 1.89 µM and the Total growth inhibition (TGI) ([23]; Renal) was 3.62 µM. For the same compound, the CC50 [23, 34] was 6.94 µM, the GI50 [24] was 2.81 µM and the Total growth inhibition (TGI) [24] was > 100 µM. The CC50 [24, 32] was > 100 µM, the GI50 ([25]; Renal) was 2.93 µM and the Total growth inhibition (TGI) ([25]; Renal) was 10.3 µM. The CC50 [25, 34] was > 100 µM, the GI50 [26] was 1.82 µM and the Total growth inhibition (TGI) [26] was 5.46 µM. For the same compound, the CC50 [26, 32] was 35.7 µM, the GI50 [27] was 4.11 µM and the Total growth inhibition (TGI) [27] was 24.3 µM. The CC50 [27, 32] was > 100 µM, the GI50 [28] was 2.64 µM and the Total growth inhibition (TGI) [28] was > 100 µM. For the same compound, the CC50 [28, 32] was > 100 µM, the GI50 ([29]; MDA-MB-231, Breast) was 1.84 µM and the Total growth inhibition (TGI) ([29]; MDA-MB-231/ATCC, Breast) was 3.44 µM. For the same compound, the CC50 ([29]; read-out: 50% lethal concentration (LC50), MDA-MB-231/ATCC, Breast) was 6.44 µM, the GI50 ([30]; Breast) was 2.69 µM and the CC50 ([30]; read-out: 50% lethal concentration (LC50), Breast) was > 100 µM. For the same compound, the GI50 [31] was 1.76 µM, the Total growth inhibition (TGI) [31] was 3.52 µM and the CC50 [31, 32] was 7 µM.
